This note sets out measurements from patent publication US7906133B2, “Optimized dosing for drug coated stents” (Boston Scientific Scimed, Inc., priority 2002, dated 2011).

Data set [1] has as its system healthy porcine arteries. The note with it: dosing of approximately 1.0 micrograms/mm^2 in a polymer coating.
Source text: Paclitaxel coated metallic stents of various doses were implanted into healthy porcine arteries to determine the effect of dosage on biological response. Dosages used were approximately 4.0, 2.0, 1.0, and 0.6 micrograms per square millimeter of the stent surface area, corresponding to approximate total dosages of 345, 175, 85, and 50 micrograms per stent. The paclitaxel was contained within a styrene-isobutylene based block copolymer applied to the stent struts.
The nature of data set [2]: in vitro release studies involving an aqueous environment (FIG. 2). Format: physicochemical. The note with it: dose 1.0 micrograms/mm^2. From the text:
(§1) Using the 1.0 micrograms/mm^2 dose as an exemplary embodiment, the effects of release rate were investigated. Metallic stents were coated with paclitaxel in a styrene-isobutylene based block copolymer carrier with the weight percent of paclitaxel in the carrier varying from approximately 8.8 to about 35%. The dose of drug applied to the stents was kept at 1.0 micrograms/mm^2, and the total drug dose was held constant by varying total coating weight.

Data set [3] is described as follows: biological response as a function of release rate from paclitaxel coated stent (FIGS. 2a-2c). It is filed as in vivo. The note with it: dose 1.0 micrograms/mm^2.
Source text: FIG. 2 and FIGS. 2a-2c illustrate the difference in biological response resulting from the difference in release rate from a paclitaxel coated stent.
as §1

Setting [4] is: weight fraction less than about 35% in polymer carrier.

As for `CC(=O)O[C@H]1C(=O)[C@@]2(C)[C@H]([C@H](OC(=O)c3ccccc3)[C@]3(O)C[C@H](OC(=O)[C@H](O)[C@@H](NC(=O)c4ccccc4)c4ccccc4)C(C)=C1C3(C)C)[C@]1(OC(C)=O)CO[C@@H]1C[C@@H]2O` [paclitaxel], the safety and efficacy entry in data set [1] is “superior safety and efficacy”. Also, the “paclitaxel released within two days” value in data set [2] (8.8% weight fraction in styrene-isobutylene based block copolymer carrier) was “about 2 micrograms”; in data set [2] (35% weight fraction in styrene-isobutylene based block copolymer carrier), “approximately 45 micrograms”; in data set [2] (setting [4]), “less than 45 micrograms”. For the same compound, in data set [2] (all curves in FIG. 2 (weight fractions 8.8 to 35%)), the “release profile over time” value was “relatively rapid release rate over the first few days, followed by a slower, sustained release over up to about two weeks”. Besides, in data set [2] (setting [4]), the “paclitaxel released within ten days” value is given as “less than 60 micrograms”. Moreover, the fibrin accumulation result in data set [3] (fastest release rate (FIG. 2a)) is recorded as “noticeable fibrin accumulation”; in data set [3] (slower release rates (FIGS. 2b and 2c)) it was “did not result in this effect”.
